Measurements published in the supplement of paper PMC11821682.

Tests used:
Danio rerio embryo [1] = assay: BMC10 mortality 24-120 hpf; higher = less toxic
Experimental: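 ZBEscreen: dechorionated Tropical 5D zebrafish embryos were exposed from 4 hpf in 96-well plates (1% DMSO, 28 °C). All compounds were first tested at 100 µM; hits were retested at 0.005-100 µM. Morphology and mortality were scored at 120 hpf and fitted as BMC10 (3-parameter log-logistic, extra risk). The embryonic photomotor response at 24 hpf and the larval photomotor response at 120 hpf are given as lowest effect levels (K-S test, p<0.01). NA = not significant up to 100 µM; NT = not tested.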

Danio rerio embryo [2] = assay: LEL larval photomotor response dark phase 120 hpf
Danio rerio embryo [3] = assay: BMC10 any morphological effect or mortality at 120 hpf; higher = less toxic
Danio rerio embryo [4] = assay: LEL embryonic photomotor response 24 hpf
HL-60 = assay: Cell Health Index (toxicity pseudo-probability over dose series) (index 0-1); higher = more cytotoxic / cell stress;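 also: HL-60 cells exposed 4 h at 37 °C to ten threefold dilutions spanning 5 nM to 100 µM, multiparametric flow cytometry features scored by machine-learning classification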

| SMILES | BMC10 mortality 24-120 hpf (Danio rerio embryo [1]) | LEL larval photomotor response dark phase 120 hpf (Danio rerio embryo [2]) | BMC10 any morphological effect or mortality (Danio rerio embryo [3]) | LEL embryonic photomotor response 24 hpf (Danio rerio embryo [4]) | Cell Health Index (HL-60) |
| --- | --- | --- | --- | --- | --- |
| O[C@H]1[C@@]2([H])[C@](CC[C@]2([H])[C@](O)(C)CC/C=C(C)/C)(C)[C@]3(C)CC[C@]4([H])[C@@](CC[C@H](O[C@]5([H])O[C@H](CO)[C@@H](O)[C@H](O)[C@H]5O)C4(C)C)(C)[C@@]3([H])C1 [20(S)-Ginsenoside Rh2] | 9.35 µM | > 100 µM | > 100 µM | 11.1 µM | 0.787 |
| Cc1sc2c(c1C)C(c1ccc(Cl)cc1)=N[C@@H](CC(=O)OC(C)(C)C)c1nnc(C)n1-2 [(+)-JQ1] | 1.15 µM | > 100 µM | 1.13 µM | 3.7 µM | 0.87 |
| CC(C)c1cnn2c(NCc3ccccc3-n3cccn3)nc(OC3CCCNC3)nc12 (stereo not given) [LDC-4297] | 32.8 µM | > 100 µM | 15.3 µM | 33.3 µM | 0.847 |
| COC(=O)c1cc(OC)c2c(c1-c1c(CO)cc(OC)c3c1OCO3)OCO2 [Bicyclol] | 10.7 µM | > 100 µM | 4.07 µM | 0.046 µM | 0.207 |
| CC1(C)CC[C@]2(C(=O)O)CC[C@]3(C)C(=CC[C@@H]4[C@@]5(C)C[C@@H](O)[C@H](O)C(C)(C)C5CC[C@]43C)[C@H]2C1 (stereo not given in full) [Maslinic acid] | 13.3 µM | > 100 µM | 13.3 µM | > 100 µM | 0.494 |
| O=C(Nc1ncc([N+](=O)[O-])s1)c1ccccc1O [Tizoxanide] | 44.2 µM | > 100 µM | 29.5 µM | > 100 µM | 0.736 |
| C/C=C(/C)C(=O)OC(C)(C)[C@@H]1Cc2c(ccc3ccc(=O)oc23)O1 [Columbianadin] | 4.89 µM | > 100 µM | 4.14 µM | 3.7 µM | 0.399 |
| C=CC(=O)N1CC/C(=C\c2ccc(F)c([N+](=O)[O-])c2)C(=O)/C(=C/c2ccc(F)c([N+](=O)[O-])c2)C1 [VLX1570] | 1.38 µM | > 100 µM | 1.26 µM | > 100 µM | 0.884 |
| COc1cc2c(c(OC)c1OC)-c1c(cc(OC)c(OC)c1OC)C[C@H](C)[C@H](C)C2 [Schisandrin A] | 3.4 µM | > 100 µM | 3.78 µM | 0.015 µM | 0.661 |
| Cl.O[C@@H](c1cc(C(F)(F)F)nc2c(C(F)(F)F)cccc12)[C@H]1CCCCN1 [Mefloquine] | 10.7 µM | > 100 µM | 8.89 µM | 0.015 µM | 0.931 |
| CC(C)(C)c1cc(C(=O)/C(C#N)=N/Nc2cccc(Cl)c2)no1 [ESI-09] | 0.13 µM | > 100 µM | 0.422 µM | 11.1 µM | 0.698 |
| COc1oc(=O)c2cc(N)ccc2c1Cl [JCP251] | 71.8 µM | 11.1 µM | 42.2 µM | 100 µM | 0.306 |
| C=CC(C)(C)c1cc(/C=C/C(=O)c2ccc(O)cc2)c(OC)cc1O [Licochalcone A] | 1.16 µM | > 100 µM | 0.64 µM | 3.7 µM | 0.828 |
| CCc1nc(N)nc(N)c1-c1ccc(Cl)cc1 [Pyrimethamine] | 30 µM | > 100 µM | 3.56 µM | 100 µM | 0.324 |
| CC(=O)c1cc([N+](=O)[O-])c(Sc2cccc(Cl)c2Cl)s1 | 27.7 µM | > 100 µM | 0.246 µM | > 100 µM | 0.789 |
| O=C1C=CC2=CC=C(OC)C(C/C=C(C)\C)=C2O1 [Osthole] | 8.94 µM | > 100 µM | 3.1 µM | 3.7 µM | 0.355 |
| CCCCCCCC/C=C\CCCCCCCCCCCCCC(=O)O [Nervonic acid] | 31 µM | > 100 µM | 30.9 µM | > 100 µM | 0.175 |
| C=CCc1ccc(O)c(-c2ccc(O)c(CC=C)c2)c1 [Honokiol] | 9.2 µM | > 100 µM | 5.7 µM | 3.7 µM | 0.542 |
| CC(=O)c1c(O)cc(O)c(C(C)=O)c1O [2,4-Diacetylphloroglucinol] | 3.32 µM | > 100 µM | 1.45 µM | 3.7 µM | 0.669 |
| N[C@H]1C[C@@H]1c1ccc(-c2cccc(O)c2)cc1 [OG-L002] | 15.4 µM | > 100 µM | 3.27 µM | 0.015 µM | 0.334 |
| CC(=O)Oc1ccccc1C(=O)Nc1ncc([N+](=O)[O-])s1 [Nitazoxanide] | 45.9 µM | > 100 µM | 44.9 µM | > 100 µM | 0.723 |
| CC(C)C[C@H](NC(=O)[C@H](Cc1ccccc1)NC(=O)c1cnccn1)B(O)O [Bortezomib] | 17.4 µM | 0.14 µM | 13.2 µM | > 100 µM | 0.24 |
| CC(C)C(=O)SCCCCCCC(=O)Nc1nc(-c2ccccc2)cs1 [NCH-51] | 0.624 µM | > 100 µM | 0.188 µM | 0.41 µM | 0.268 |
| CN1Cc2c(ccc3c2OCO3)[C@@H]2[C@H]1c1cc3c(cc1C[C@@H]2O)OCO3 [Chelidonine] | 0.079 µM | > 100 µM | 0.064 µM | > 100 µM | 0.277 |
| COc1ccc2c(O[C@@H]3C[C@H]4C(=O)N[C@]5(C(=O)NS(=O)(=O)C6CC6)C[C@H]5/C=C\CCCCN(C)C(=O)[C@@H]4C3)cc(-c3nc(C(C)C)cs3)nc2c1C.[Na] [Simeprevir] | 5.01 µM | > 100 µM | 3.6 µM | > 100 µM | 0.903 |
| CC[C@H]1CN2CCc3cc(OC)c(OC)cc3[C@@H]2C[C@@H]1C[C@H]1NCCc2cc(O)c(OC)cc21 [Cephaeline] | 0.159 µM | 0.41 µM | 0.069 µM | 3.7 µM | 0.562 |

| SMILES | BMC10 mortality 24-120 hpf (Danio rerio embryo [1]) | LEL larval photomotor response dark phase 120 hpf (Danio rerio embryo [2]) | BMC10 any morphological effect or mortality (Danio rerio embryo [3]) | LEL embryonic photomotor response 24 hpf (Danio rerio embryo [4]) | Cell Health Index (HL-60) |
| --- | --- | --- | --- | --- | --- |
| CC(C)(C)C(O)C(Oc1ccc(-c2ccccc2)cc1)n1cncn1 (stereo not given) [Bitertanol] | 30.3 µM | 11.1 µM | 16.4 µM | 33.3 µM | 0.408 |
| S=C(N(C1=CC=CC=C1)C(/C2=C\C3=CC=C(C4=CC=CC=C4[N+]([O-])=O)O3)=O)N(C5=CC=CC=C5)C2=O [UCF 101] | 4.93 µM | > 100 µM | 3.23 µM | > 100 µM | 0.876 |
| CC1(C)[C@@H](O)CC[C@@]2(C)[C@@]1([H])[C@@H](O)C[C@]3(C)[C@]2([H])C[C@@H](O)[C@@]4([H])[C@@]3(C)CC[C@]4([H])[C@@](C)(O)CC/C=C(C)/C [20(S)-Protopanaxatriol] | 25.7 µM | > 100 µM | 16.2 µM | 33.3 µM | 0.803 |
| COc1cc(/C=C\C(=O)CC(=O)/C=C\c2ccc(O)c(OC)c2)ccc1O [Curcumin] | 40 µM | > 100 µM | 30.8 µM | > 100 µM | 0.401 |
| Cc1cc(CCCOc2c(C)cc(-c3noc(C(F)(F)F)n3)cc2C)on1 [Pleconaril] | 6.8 µM | > 100 µM | 1.15 µM | 0.41 µM | 0.48 |
| COc1ccccc1NC(=O)c1ccccc1Sc1ccc([N+](=O)[O-])cc1 [RN-18] | 11.8 µM | > 100 µM | 10 µM | 11.1 µM | 0.491 |
| Fc1ccc(CNc2ncnc3ccc(F)cc23)cc1 [Spautin-1] | 1.17 µM | 1.23 µM | 0.511 µM | 3.7 µM | 0.772 |
| O=c1c(O)c(-c2ccc(O)cc2)oc2cc(O)cc(O)c12 [Kaempferol] | 38.4 µM | > 100 µM | 10 µM | > 100 µM | 0.463 |
| CC(=O)c1c(O)c(C)c(O)c2c1OC1=CC(=O)C(C(C)=O)C(=O)C12C (stereo not given) [Usnic acid] | 1.77 µM | > 100 µM | 1.01 µM | 33.3 µM | 0.406 |
| CC1(C)C=Cc2c(ccc3c2OC[C@@H](c2ccc(O)cc2O)C3)O1 [Glabridin] | 9.73 µM | > 100 µM | 3.57 µM | 11.1 µM | 0.58 |
| Fc1cc(F)c2c(c1)C1C=CCC1C(c1cccnc1)N2 (stereo not given) [Golgicide A] | 2.32 µM | > 100 µM | 1.37 µM | 3.7 µM | 0.317 |
| CCN(CC)CCOc1ccc2c(c1)C(=O)c1cc(OCCN(CC)CC)ccc1-2.Cl.Cl [Tilorone] | 9.79 µM | > 100 µM | 3.55 µM | > 100 µM | 0.506 |
| CC(=O)O[C@H]1[C@H]2O[C@]23[C@@H]2CC[C@@H]4C[C@@H](O)CC[C@]4(C)[C@H]2CC[C@]3(C)[C@H]1c1ccc(=O)oc1 [Cinobufagin] | 29.9 µM | 33.3 µM | 27.2 µM | 1.23 µM | 0.556 |
| O=C(NCCO)c1cccc(-c2cc(Nc3ccc(OC(F)(F)F)cc3)ncn2)c1 [GNF-5] | 36.2 µM | 33.3 µM | 28.6 µM | > 100 µM | 0.81 |
| CN1CCN(CCOc2cc(OC3CCOCC3)c3c(Nc4c(Cl)ccc5c4OCO5)ncnc3c2)CC1 [Saracatinib] | 45.7 µM | > 100 µM | 15.5 µM | 100 µM | 0.695 |
| Cc1cc(Nc2nc(N[C@@H](C)c3ccc(F)cc3)c(C#N)cc2F)n[nH]1 [AZ-960] | 1.95 µM | > 100 µM | 1.27 µM | 3.7 µM | 0.78 |
| C=C[C@H](OC(C)=O)c1ccc(OC(C)=O)cc1 (racemic) [(±)-1'-Acetoxychavicol acetate] | 1.96 µM | > 100 µM | 1.32 µM | > 100 µM | 0.778 |
| CNc1ccc([N+](=O)[O-])c(Nc2ccc3[nH]ncc3c2)n1 [KRIBB11] | 0.805 µM | 1.23 µM | 3.27 µM | 11.1 µM | 0.372 |
| C=C(C)[C@@H]1CC[C@]2(C(=O)O)CC[C@]3(C)[C@H](CC[C@@H]4[C@@]5(C)CC[C@H](OC(=O)CC(C)(C)C(=O)O)C(C)(C)[C@@H]5CC[C@]43C)[C@@H]12 [Bevirimat] | 3.82 µM | > 100 µM | 1.29 µM | 11.1 µM | 0.321 |
| O=c1cc(-c2ccccc2)oc2cc(O)cc(O)c12 [Chrysin] | 28.3 µM | 11.1 µM | 28.6 µM | 33.3 µM | 0.435 |
| C[C@H]1CCC/C=C/[C@@H]2C[C@H](O)C[C@H]2[C@H](O)/C=C/C(=O)O1 [Brefeldin A] | 3.95 µM | > 100 µM | 1.09 µM | 11.1 µM | 0.226 |
| OC1=C2C(C(C=C([C@@](O)([H])C/C=C(C)\C)C2=O)=O)=C(O)C=C1 [Shikonin] | 1.73 µM | > 100 µM | 1.08 µM | 3.7 µM | 0.884 |
| CCOC(=O)c1ccc(OCCC2CCN(c3ccc(C)nn3)CC2)cc1 [Pirodavir] | 1.43 µM | > 100 µM | 2.02 µM | 3.7 µM | 0.528 |
| COc1ccc2c(c1)CC[C@@H]1[C@@H]2CC[C@]2(C)[C@@H](NCCCCCCN3C(=O)C=CC3=O)CC[C@@H]12 | 0.101 µM | > 100 µM | 0.134 µM | 11.1 µM | 0.348 |
| C[C@]12CC[C@H](O)C[C@H]1CC[C@@H]1[C@@H]2CC[C@]2(C)[C@@H](c3ccc(=O)oc3)C[C@H]3O[C@]132 [Bufogenin] | 1.41 µM | > 100 µM | 2.23 µM | 11.1 µM | 0.504 |
| C[C@H]1[C@H](C)CC[C@]2(C(=O)O)CC[C@]3(C)C(=CC[C@@H]4[C@@]5(C)CC[C@H](O)C(C)(C)[C@@H]5CC[C@]43C)[C@H]12 [Ursolic acid] | 3.95 µM | > 100 µM | 0.748 µM | > 100 µM | 0.434 |
